According to patent publication EP0368624A2, “Method and composition for stabilizing and solubilizing latex reagents” (Biotrack, Inc., priority 1988, dated 1990):

Tests used:
[1] = Recovery of activity of antibody-latex reagent after drying on plastic (turbidimetric agglutination rate vs liquid control)
Source text: An agglutinating polymer was made by covalent attachment of about nine molecules of a peptide antigen to polyaspartic acid (M=15,000). A latex reagent was made by adsorption of a monoclonal antibody (which binds to the peptide antigen) to small latex particles (85 nm diameter) by adsorption. […] The mixture was aspirated into a temperature controlled flow cell of a spectrophotometer with a 1 cm optical path length and rapidly heated to […]. The change of apparent absorbance at 540 nm was then recorded over 20s.
Liquid was removed by exposure to desiccant under a variety of conditions (flowing air, flowing dry N₂, or vacuum).
Additives were added to the latex suspension at the indicated concentrations prior to drying. Recovery is given in Table 2 as a percentage of the activity of a non-dried (liquid) control. […]

[2] = Agglutination of dried hepatitis B virus core antigen coated latex in cartridge with serum samples; parameters: key: +: A positive reaction was recorded if the latex particles were agglutinated at the end of the track; conditions: serum sample containing antibodies to hepatitis virus core antigen
Description: Antigen coated latex (prepared as in Example 5) (1 µL x 1.0% w/v suspended in 0·1M glycine pH 8·4 containing 0·1 6 M NaCl and 3 mM Sodium Azide either with or without 5% sucrose) was coated on the surface of piece of PETG plastic. After drying under a stream of dry nitrogen, the piece was incorporated into a cartridge by lamination of a track excised from double sided adhesive tape (4 mill thick) as described in USP 4,756,884. To test the activity of the dry reagent films, serum samples containing or not containing antibodies to hepatitis virus core antigen were applied to the sample application site and the reaction between the sample and the reagent film observed as the sample flowed over the film and the mixture was drawn down the part of the track distal from the sample application site. A positive reaction was recorded if the latex particles were agglutinated at the end of the track.

[3] = additive concentration 5 % in the aqueous latex suspension applied to the plastic

O=C([O-])[C@H](O)[C@@H](O)[C@H](O)[C@H](O)CO.[Na+] [35D-Gluconic Acid-Na+, D-Gluconic Acid-Na+]
Activity (%) Ref = Liq [1, 3]: 41%

OC[C@@H](O)C(O)[C@H](O)CO [D-arabitol]
Activity (%) Ref = Liq [1, 3]: 101%

Cl.N[C@H]1C(O)O[C@H](CO)[C@@H](O)[C@@H]1O (stereo partly drawn) [D-glucosamine-HCl]
Activity (%) Ref = Liq [1, 3]: 25%

OC[C@@H](O)[C@H](O)[C@@H](O)CO [D-xylitol]
Activity (%) Ref = Liq [1, 3]: 92%

OC[C@H](O)C(O)[C@@H](O)CO [L-arabitol]
Activity (%) Ref = Liq [1, 3]: 94%

OC[C@@H](O)[C@H](O)[C@@H](O)CO [L-xylitol]
Activity (%) Ref = Liq [1, 3]: 94%

OC[C@@H](O)[C@@H](O)[C@H](O)[C@H](O)CO [Mannitol]
Activity (%) Ref = Liq ([1]; additive concentration 4 % in the aqueous latex suspension applied to the plastic): 0%

OC[C@@H](O)[C@@H](O)[C@@H](O)CO [Ribitol]
Activity (%) Ref = Liq [1, 3]: 70%

OC[C@@H](O)[C@@H](O)[C@H](O)[C@@H](O)CO [Sorbitol]
Activity (%) Ref = Liq [1, 3]: 5%

OC[C@H]1O[C@@](CO)(O[C@H]2O[C@H](CO)[C@@H](O)[C@H](O)[C@H]2O)[C@@H](O)[C@@H]1O [Sucrose]
Agglutination + sample [2]: +
